Data set [1] is described as follows: Inhibition of Staphylococcus aureus DNA gyrase.
Data set [2] in a line: Inhibition of Staphylococcus aureus DNA topoisomerase 4.
Data set [3] in a line: Ratio of fAUC in fluoroquinolone-resistant Staphylococcus aureus infected mouse neutropenic thigh model to MIC for fluoroquinolone-resistant Staphylococcus aureus.
Data set [4] in a line: Volume of distribution at steady state in mouse at 10 mg/kg, iv. The format is ADME, organism-based. The settings on record: in vivo, read-out: Vdss.
The subject of data set [5] is Staphylococcus aureus. Description: Antibacterial activity against Staphylococcus aureus. The format is functional.
Data set [6] in a line: Half life in rat at 2 mg/kg, iv. It counts as ADME, organism-based. The conditions noted are these: in vivo.
Data set [7] deals with Streptococcus pyogenes. Description: Antibacterial activity against Streptococcus pyogenes. It counts as functional.
The nature of data set [8]: Fraction unbound in rat plasma. It counts as ADME, cell-free.
A short description of data set [9]: Clearance in mouse at 10 mg/kg, iv. It counts as ADME, organism-based. The conditions noted are these: in vivo.
Data set [10] in a line: Fraction unbound in mouse plasma. The format is ADME, cell-free.
Data set [11] is described as follows: Half life in mouse at 10 mg/kg, iv. The format is ADME, organism-based. The settings on record: in vivo.
The test system of data set [12] is Staphylococcus aureus. As to the kind of experiment: Antibacterial activity against fluoroquinolone-resistant Staphylococcus aureus infected in mouse neutropenic thigh model assessed as static dose required for bacterial stasis. It counts as functional.
For data set [13], the system named is Staphylococcus aureus. Description: Antibacterial activity against Staphylococcus aureus containing DNA gyrase M121K mutations. The format is functional.
Data set [14] can be described thus: Fraction unbound in human plasma. The format is ADME, cell-free.
In data set [15] the target is Voltage-gated inwardly rectifying potassium channel KCNH2 (Homo sapiens, UniProt Q12809). Description: Inhibition of human ERG.
Voltage-gated inwardly rectifying potassium channel KCNH2, sequence (Q12809 whole entry): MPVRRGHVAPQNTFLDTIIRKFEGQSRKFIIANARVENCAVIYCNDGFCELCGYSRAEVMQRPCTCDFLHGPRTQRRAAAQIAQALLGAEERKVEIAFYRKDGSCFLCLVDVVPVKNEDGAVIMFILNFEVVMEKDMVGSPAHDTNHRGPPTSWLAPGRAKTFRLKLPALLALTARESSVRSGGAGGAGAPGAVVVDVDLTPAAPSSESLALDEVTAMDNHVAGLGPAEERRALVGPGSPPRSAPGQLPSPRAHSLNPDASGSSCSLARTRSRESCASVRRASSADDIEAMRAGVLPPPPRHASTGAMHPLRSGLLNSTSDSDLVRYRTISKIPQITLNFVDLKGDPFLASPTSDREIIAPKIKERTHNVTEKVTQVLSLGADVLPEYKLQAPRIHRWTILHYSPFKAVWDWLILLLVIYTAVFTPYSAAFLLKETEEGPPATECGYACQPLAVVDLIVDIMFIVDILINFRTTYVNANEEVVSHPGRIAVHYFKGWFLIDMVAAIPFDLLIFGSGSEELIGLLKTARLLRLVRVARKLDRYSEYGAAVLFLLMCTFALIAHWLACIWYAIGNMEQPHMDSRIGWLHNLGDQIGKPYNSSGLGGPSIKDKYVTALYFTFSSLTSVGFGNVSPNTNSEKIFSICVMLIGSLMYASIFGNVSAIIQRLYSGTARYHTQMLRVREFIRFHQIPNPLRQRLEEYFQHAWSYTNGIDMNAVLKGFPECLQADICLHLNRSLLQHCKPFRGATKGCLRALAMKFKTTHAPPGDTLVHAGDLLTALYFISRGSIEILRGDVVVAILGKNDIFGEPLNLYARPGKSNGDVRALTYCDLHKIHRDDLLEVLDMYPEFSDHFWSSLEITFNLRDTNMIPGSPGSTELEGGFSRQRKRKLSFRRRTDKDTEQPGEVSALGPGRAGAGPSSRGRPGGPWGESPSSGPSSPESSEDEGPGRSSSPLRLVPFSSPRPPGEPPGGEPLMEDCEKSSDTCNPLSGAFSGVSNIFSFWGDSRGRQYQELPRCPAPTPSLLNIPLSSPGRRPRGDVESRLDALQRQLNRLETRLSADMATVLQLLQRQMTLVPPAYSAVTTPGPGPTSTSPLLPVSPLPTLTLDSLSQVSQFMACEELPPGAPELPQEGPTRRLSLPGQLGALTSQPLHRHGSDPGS
For data set [16], the system named is Staphylococcus aureus. Description: Antibacterial activity against Staphylococcus aureus containing DNA gyrase D83N mutations. The format is functional.
In data set [17] the test system is Staphylococcus aureus. As to the kind of experiment: Antibacterial activity against fluoroquinolone-sensitive Staphylococcus aureus 1146. It counts as functional.
Data set [18] deals with Staphylococcus aureus. Description: Antibacterial activity against fluoroquinolone-resistant Staphylococcus aureus 1095. The format is functional.
Data set [19] can be described thus: Volume of distribution at steady state in rat at 2 mg/kg, iv. The settings on record: in vivo, read-out: Vdss. It counts as ADME, organism-based.
A short description of data set [20]: Clearance in rat at 2 mg/kg, iv. It counts as ADME, organism-based. The settings on record: in vivo.

The record followed here is ChEMBL document CHEMBL4033742, “Novel 3-fluoro-6-methoxyquinoline derivatives as inhibitors of bacterial DNA gyrase and topoisomerase IV” (Bioorg Med Chem Lett, 2017).

Structures are written as SMILES. Values after ≈ are worked out from the molar mass of the structure shown.

On to `COc1ccc2ncc(F)c([C@@H](O)CC[C@@H]3CCN(CCSc4cccs4)C[C@@H]3C(=O)O)c2c1`, for which the IC50 in [1] was 1.56 µM; in data set [2], 30.4 µM.

For `COc1ccc2nccc([C@@H](O)CC[C@@H]3CCN(CCSc4cccs4)C[C@@H]3C(=O)O)c2c1`, the half-inhibitory concentration (IC50) in data set [1] was 2.42 µM; in data set [2] it was 84.6 µM.

Turning to `N#Cc1ccc2ccc(=O)n(CCN3CC[C@H](NCc4cc5c(cn4)OCCO5)[C@H](F)C3)c2c1`, the Ratio in data set [3] was determined as 36.

With `COc1ccc2nccc([C@@H](O)CC[C@@H]3CCN(C4CC(c5ccccc5)C4)C[C@@H]3C(=O)O)c2c1` (stereo not given in full), the Vd in [4] was 1.06 L/kg. The half-inhibitory concentration (IC50) in [1] came to 1.19 µM; in [2] it was 32.1 µM. The MIC90 in [5] was 0.25 to 1 µg/mL (≈ 0.527 to 2.11 µM); in data set [7], 1 to 2 µg/mL (≈ 2.11 to 4.21 µM). Moreover, the half-life in data set [6] was 19.8 min; in data set [11] it was 20.4 min. In addition, the fraction unbound fell in the range of 0.296 to 0.437 in data set [8], 0.129 to 0.246 in [10] and 0.079 to 0.155 in data set [14]. The molecule also displayed a clearance in [9] of 36 mL/min/kg. The Activity in [12] amounted to 123.1 mg/kg/day. This molecule also had an MIC in data set [13] not below 64 µg/mL.

Take `COc1ccc2nccc([C@@H](O)CC[C@@H]3CCN(C4CC(c5c(F)cccc5F)C4)C[C@@H]3C(=O)O)c2c1` (stereo not given in full): the figures for the half-inhibitory concentration (IC50) in [1] and in data set [2] were 2.93 µM and 100 to 120 µM, respectively.

As to `COc1ccc2nccc([C@@H](O)CC[C@@H]3CCN(C4CC(c5cc(F)ccc5F)C4)C[C@@H]3C(=O)O)c2c1` (stereo not given in full), the results for the IC50 in data set [1] and in data set [2] were 3 µM and 9.62 µM, respectively.

Take `O=c1ccc2ncc(F)c3c2n1C[C@@]3(O)CN1CCC(NCc2cc3c(cn2)OCCO3)CC1`: the figures for the IC50 in [1], in data set [2] and in data set [15] were 0.448 µM, 4.96 µM and more than 300 µM, respectively. For the same molecule, the results for the MIC90 in data set [5] and in data set [7] were 0.5 µg/mL (≈ 1.07 µM) and 0.125 µg/mL (≈ 0.267 µM), respectively. The minimum inhibitory concentration (MIC) in data set [16] amounted to 4 µg/mL (≈ 8.56 µM); in data set [17] it was 0.125 µg/mL (≈ 0.267 µM); in data set [18] it was 0.31 µg/mL (≈ 0.663 µM); in data set [13], 8 µg/mL (≈ 17.1 µM).

With `COc1ccc2ncc(F)c([C@@H](O)CC[C@@H]3CCN(C4CC(c5ccccn5)C4)C[C@@H]3C(=O)O)c2c1` (stereo not given in full), the IC50 in data set [1] is 3.13 µM; in [2], 50 µM. For the same molecule, the MIC in data set [16] was more than 64 µg/mL; in [17], 1 µg/mL (≈ 2.03 µM); in [18] it was 16 µg/mL (≈ 32.4 µM).

As to `COc1ccc2ncc(F)c([C@@H](O)CC[C@@H]3CCN(C4CC(c5ccccc5F)C4)C[C@@H]3C(=O)O)c2c1` (stereo not given in full), the IC50 amounted to 0.78 µM in data set [1] and 19 µM in data set [2]. In addition, the figures for the MIC90 in [5] and in data set [7] were 0.125 µg/mL (≈ 0.245 µM) and 0.5 µg/mL (≈ 0.979 µM), respectively. The minimal inhibitory concentration (MIC) in data set [16] was 16 µg/mL (≈ 31.3 µM); in [17] it was not above 0.0625 µg/mL; in [18], 0.125 µg/mL (≈ 0.245 µM); in data set [13], 16 µg/mL (≈ 31.3 µM).

Regarding `COc1ccc2ncc(F)c([C@@H](O)CC[C@@H]3CCN(C4CC(c5c(F)cccc5F)C4)C[C@@H]3C(=O)O)c2c1` (stereo not given in full), the results for the IC50 in [1], in data set [2] and in [15] were 4.61 µM, 18.3 µM and 45.3 µM, respectively. Further, the MIC90 in data set [5] came to 0.125 µg/mL (≈ 0.236 µM); in [7], 0.5 µg/mL (≈ 0.946 µM). The MIC was 3.2 µg/mL (≈ 6.05 µM) in [16], not above 0.063 µg/mL in [17], 0.079 µg/mL (≈ 0.149 µM) in [18] and 2.8 µg/mL (≈ 5.3 µM) in data set [13].

For the molecule `COc1ccc2ncc(F)c([C@@H](O)CC[C@@H]3CCN(C4CC(c5cccs5)C4)C[C@@H]3C(=O)O)c2c1` (stereo not given in full), the results for the IC50 in data set [1] and in [2] were 0.78 µM and 9.4 µM, respectively. For the same molecule, the MIC90 in [5] stood at 0.125 µg/mL (≈ 0.251 µM); in data set [7], 0.5 µg/mL (≈ 1 µM). The minimal inhibitory concentration (MIC) in data set [16] is 11.3 µg/mL (≈ 22.7 µM); in data set [17] it was not above 0.0625 µg/mL; in data set [18], 0.125 µg/mL (≈ 0.251 µM); in [13] it was 16 µg/mL (≈ 32.1 µM).

With `COc1ccc2ncc(F)c([C@@H](O)CC[C@@H]3CCN(C4CC(c5cc(F)ccc5F)C4)C[C@@H]3C(=O)O)c2n1` (stereo not given in full), the results for the Vd in data set [4] and in [19] were 0.825 L/kg and 1.89 L/kg, respectively. Further, the IC50 in [1] was 1.43 µM; in data set [2], 5.09 µM; in data set [15], 45 µM. In addition, the figures for the MIC90 in [5] and in data set [7] were 0.125 to 0.25 µg/mL (≈ 0.236 to 0.472 µM) and 0.5 to 1 µg/mL (≈ 0.944 to 1.89 µM), respectively. The MIC in data set [16] was 2.5 µg/mL (≈ 4.72 µM); in [17], not above 0.0625 µg/mL; in [18], 0.088 µg/mL (≈ 0.166 µM); in data set [13] it was 2.3 µg/mL (≈ 4.34 µM). The half-life in data set [6] is 40.2 min; in data set [11], 16.8 min. The unbound share (fraction unbound) in data set [8] lay within 0.121 to 0.189; in data set [10], 0.131 to 0.242; in [14], 0.036 to 0.037. Also, the clearance in [9] came to 34 mL/min/kg; in [20], 32.7 mL/min/kg. The Activity in data set [12] is recorded as 80.7 mg/kg/day.

What is called IC50 is the point on the concentration scale where inhibition reaches its midpoint. A lower IC50 goes with greater potency. The MIC90 is an inhibitory concentration at the 90% level, which refers to growth in some studies and to a panel of isolates in others. A higher MIC90 goes with lower susceptibility. The term half-life denotes how long it takes for the measured level to halve. Low values mean fast loss, high ones slow loss. In general, fraction unbound refers to the share of the substance not bound to proteins or other matrix. High values mean much free substance, low ones little free substance. As a reminder, the clearance is a measure of how efficiently the substance is removed, as volume per time. Read a high clearance as a high capacity for elimination. As usually defined, the MIC is the lowest concentration found to suppress growth. A higher MIC goes with weaker potency.
